Source: patent US20260356819A1, “OXOISOINDOLINYL-SUBSTITUTED […] DERIVATIVE AND USE THEREOF” (GLUETACS THERAPEUTICS (SHANGHAI) CO., LTD., priority 2023, published 2026)

Tests used:
Type in all cases: cell-based
Settings in all cases: compounds at 50 nM and 500 nM
IKZF3 = target: T1, IKZF3 (Homo sapiens, UniProt Q96SW2+Q9UKT9); test: Western blot degradation of IKZF3 in hPBMCs (24 h)
T1 construct: The supernatant was aspirated as the extracted total cell protein; endogenous in cells; host or cells: human peripheral blood mononuclear cells (hPBMCs)
T1 sequence (Q9UKT9 whole entry): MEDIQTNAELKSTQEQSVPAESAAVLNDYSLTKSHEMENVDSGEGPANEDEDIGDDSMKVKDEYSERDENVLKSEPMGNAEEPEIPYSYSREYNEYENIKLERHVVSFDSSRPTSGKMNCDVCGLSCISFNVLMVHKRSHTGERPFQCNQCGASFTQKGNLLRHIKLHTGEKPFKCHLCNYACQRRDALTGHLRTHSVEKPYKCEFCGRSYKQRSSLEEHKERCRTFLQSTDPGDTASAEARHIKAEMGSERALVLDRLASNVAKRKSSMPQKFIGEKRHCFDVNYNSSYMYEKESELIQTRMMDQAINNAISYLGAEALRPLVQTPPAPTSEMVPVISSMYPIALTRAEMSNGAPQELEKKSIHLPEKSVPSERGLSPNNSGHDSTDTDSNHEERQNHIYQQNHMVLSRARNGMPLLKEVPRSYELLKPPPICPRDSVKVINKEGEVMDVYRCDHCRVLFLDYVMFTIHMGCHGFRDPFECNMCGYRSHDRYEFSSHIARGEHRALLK
T1 sequence (Q96SW2 whole entry): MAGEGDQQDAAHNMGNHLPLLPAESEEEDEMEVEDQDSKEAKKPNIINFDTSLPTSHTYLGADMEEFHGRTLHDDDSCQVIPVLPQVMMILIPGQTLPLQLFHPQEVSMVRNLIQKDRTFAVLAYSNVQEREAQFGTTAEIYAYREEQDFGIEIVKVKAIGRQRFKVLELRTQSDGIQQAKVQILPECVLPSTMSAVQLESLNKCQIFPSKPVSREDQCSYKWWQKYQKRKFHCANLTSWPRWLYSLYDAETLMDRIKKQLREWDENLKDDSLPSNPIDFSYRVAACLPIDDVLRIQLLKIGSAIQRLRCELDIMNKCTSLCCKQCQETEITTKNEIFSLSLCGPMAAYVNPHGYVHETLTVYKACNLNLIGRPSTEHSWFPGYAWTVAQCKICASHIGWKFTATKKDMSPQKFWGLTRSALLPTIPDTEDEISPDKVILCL
T1 sequence (Q16531 whole entry partner): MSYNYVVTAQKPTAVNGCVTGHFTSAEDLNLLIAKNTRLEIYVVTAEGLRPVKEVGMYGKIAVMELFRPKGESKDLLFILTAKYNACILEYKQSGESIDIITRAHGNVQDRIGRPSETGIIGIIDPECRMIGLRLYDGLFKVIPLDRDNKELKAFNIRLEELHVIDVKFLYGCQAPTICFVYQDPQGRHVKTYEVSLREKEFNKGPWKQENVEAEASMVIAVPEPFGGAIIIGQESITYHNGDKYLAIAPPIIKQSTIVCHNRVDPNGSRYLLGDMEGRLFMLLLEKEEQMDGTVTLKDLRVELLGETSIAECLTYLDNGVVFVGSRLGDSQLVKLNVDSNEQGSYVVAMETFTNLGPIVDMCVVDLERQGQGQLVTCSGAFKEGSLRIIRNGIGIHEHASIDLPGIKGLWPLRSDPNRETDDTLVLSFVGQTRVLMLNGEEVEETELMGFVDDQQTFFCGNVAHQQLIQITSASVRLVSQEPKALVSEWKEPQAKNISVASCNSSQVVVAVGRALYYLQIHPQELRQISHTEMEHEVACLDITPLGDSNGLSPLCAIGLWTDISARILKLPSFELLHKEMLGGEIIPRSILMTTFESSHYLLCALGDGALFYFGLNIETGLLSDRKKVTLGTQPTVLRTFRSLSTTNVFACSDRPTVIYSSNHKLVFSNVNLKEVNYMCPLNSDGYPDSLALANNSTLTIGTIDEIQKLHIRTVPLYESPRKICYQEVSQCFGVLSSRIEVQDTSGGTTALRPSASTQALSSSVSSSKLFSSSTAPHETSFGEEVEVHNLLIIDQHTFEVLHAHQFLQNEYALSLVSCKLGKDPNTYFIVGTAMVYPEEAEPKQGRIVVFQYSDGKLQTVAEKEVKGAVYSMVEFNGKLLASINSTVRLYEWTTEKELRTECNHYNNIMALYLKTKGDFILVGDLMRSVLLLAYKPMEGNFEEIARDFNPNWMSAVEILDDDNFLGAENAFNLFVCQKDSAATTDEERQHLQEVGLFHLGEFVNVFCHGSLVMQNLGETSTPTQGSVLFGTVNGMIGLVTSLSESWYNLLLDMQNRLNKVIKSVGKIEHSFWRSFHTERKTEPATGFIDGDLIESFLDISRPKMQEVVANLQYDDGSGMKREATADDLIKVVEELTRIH
Procedure, shortened: (§1)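 hPBMCs (1×10^6 cells/mL) exposed to compound at 50 nM and 500 nM for 24 h, DMSO as reference. Lysates run on SDS-PAGE and immunoblotted. Band grayscale normalized to internal control gives % protein remaining; DC50 from fitted concentration-response of band intensity versus DMSO.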

GSPT1 = target: T2, GSPT1 (Homo sapiens, UniProt P15170+Q96SW2); test: Western blot degradation of GSPT1 in hPBMCs (24 h)
T2 construct: The supernatant was aspirated as the extracted total cell protein; endogenous in cells; host or cells: human peripheral blood mononuclear cells (hPBMCs)
T2 sequence (P15170 whole entry): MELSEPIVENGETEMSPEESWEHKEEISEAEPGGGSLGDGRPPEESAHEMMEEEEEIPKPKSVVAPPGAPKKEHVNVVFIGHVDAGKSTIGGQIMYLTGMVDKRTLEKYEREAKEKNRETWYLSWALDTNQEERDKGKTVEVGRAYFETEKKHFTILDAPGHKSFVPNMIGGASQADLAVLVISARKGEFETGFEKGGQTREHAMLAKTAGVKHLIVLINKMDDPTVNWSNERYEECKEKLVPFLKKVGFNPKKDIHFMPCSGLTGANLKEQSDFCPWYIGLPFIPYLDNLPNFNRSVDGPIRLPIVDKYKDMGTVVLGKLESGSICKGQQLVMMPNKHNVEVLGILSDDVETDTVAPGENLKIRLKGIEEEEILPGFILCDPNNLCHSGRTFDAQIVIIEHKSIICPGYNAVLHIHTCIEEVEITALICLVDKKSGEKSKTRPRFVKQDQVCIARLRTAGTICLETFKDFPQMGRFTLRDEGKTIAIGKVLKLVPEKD
T2 sequence (Q96SW2 whole entry): as the sequence (Q96SW2 whole entry) above
T2 sequence (Q16531 whole entry partner): as the sequence (Q16531 whole entry partner) above
Procedure, shortened: as §1

IKZF2 = target: T3, IKZF2 (Homo sapiens, UniProt Q96SW2+Q9UKS7); test: Western blot degradation of IKZF2 in hPBMCs (24 h)
T3 construct: The supernatant was aspirated as the extracted total cell protein; endogenous in cells; host or cells: human peripheral blood mononuclear cells (hPBMCs)
T3 sequence (Q9UKS7 whole entry): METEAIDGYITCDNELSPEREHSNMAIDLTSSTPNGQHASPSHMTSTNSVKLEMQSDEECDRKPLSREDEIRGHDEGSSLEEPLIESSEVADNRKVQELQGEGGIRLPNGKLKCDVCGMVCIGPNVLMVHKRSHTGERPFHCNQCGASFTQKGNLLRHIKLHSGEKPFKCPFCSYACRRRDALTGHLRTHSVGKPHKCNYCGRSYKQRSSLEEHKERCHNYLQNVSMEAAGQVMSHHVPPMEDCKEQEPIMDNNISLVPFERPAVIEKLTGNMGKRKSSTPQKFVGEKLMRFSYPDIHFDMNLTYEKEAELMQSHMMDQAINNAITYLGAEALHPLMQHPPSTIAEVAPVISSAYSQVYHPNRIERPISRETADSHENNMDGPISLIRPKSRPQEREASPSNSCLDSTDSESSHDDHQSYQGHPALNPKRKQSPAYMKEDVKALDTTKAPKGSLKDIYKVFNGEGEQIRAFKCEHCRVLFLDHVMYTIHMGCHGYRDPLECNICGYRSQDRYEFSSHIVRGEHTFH
T3 sequence (Q96SW2 whole entry): as the sequence (Q96SW2 whole entry) above
T3 sequence (Q16531 whole entry partner): as the sequence (Q16531 whole entry partner) above
Procedure, shortened: as §1

IKZF1 = target: T4, IKZF1 (Homo sapiens, UniProt Q13422+Q96SW2); test: Western blot degradation of IKZF1 in hPBMCs (24 h)
T4 construct: The supernatant was aspirated as the extracted total cell protein; endogenous in cells; host or cells: human peripheral blood mononuclear cells (hPBMCs)
T4 sequence (Q13422 whole entry): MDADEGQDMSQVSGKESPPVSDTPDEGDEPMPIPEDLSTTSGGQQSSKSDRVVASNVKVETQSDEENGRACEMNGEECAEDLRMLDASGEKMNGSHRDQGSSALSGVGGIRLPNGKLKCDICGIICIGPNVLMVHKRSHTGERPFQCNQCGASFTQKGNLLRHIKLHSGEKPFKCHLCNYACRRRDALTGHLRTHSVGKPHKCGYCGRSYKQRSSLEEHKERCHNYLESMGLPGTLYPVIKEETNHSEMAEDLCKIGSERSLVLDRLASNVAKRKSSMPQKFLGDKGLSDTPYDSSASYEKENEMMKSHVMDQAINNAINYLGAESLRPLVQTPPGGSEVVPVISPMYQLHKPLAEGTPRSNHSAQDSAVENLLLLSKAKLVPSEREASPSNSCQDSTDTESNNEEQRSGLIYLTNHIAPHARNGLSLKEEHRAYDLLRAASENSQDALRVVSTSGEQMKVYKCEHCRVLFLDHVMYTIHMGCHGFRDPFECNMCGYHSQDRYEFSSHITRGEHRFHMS
T4 sequence (Q96SW2 whole entry): as the sequence (Q96SW2 whole entry) above
T4 sequence (Q16531 whole entry partner): as the sequence (Q16531 whole entry partner) above
Procedure, shortened: as §1

CK1α = target: T5, CK1α (Homo sapiens, UniProt P48729+Q96SW2); test: Western blot degradation of CK1α in hPBMCs (24 h)
T5 construct: The supernatant was aspirated as the extracted total cell protein; endogenous in cells; host or cells: human peripheral blood mononuclear cells (hPBMCs)
T5 sequence (P48729 whole entry): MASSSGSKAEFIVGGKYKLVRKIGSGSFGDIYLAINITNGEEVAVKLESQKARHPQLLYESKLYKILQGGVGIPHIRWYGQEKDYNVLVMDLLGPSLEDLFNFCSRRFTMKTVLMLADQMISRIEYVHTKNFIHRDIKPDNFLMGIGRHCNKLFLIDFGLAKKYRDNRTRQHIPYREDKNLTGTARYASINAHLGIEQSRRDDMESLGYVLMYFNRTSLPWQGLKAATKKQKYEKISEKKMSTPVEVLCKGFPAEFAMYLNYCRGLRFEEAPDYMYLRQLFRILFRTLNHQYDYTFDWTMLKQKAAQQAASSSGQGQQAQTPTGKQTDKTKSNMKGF
T5 sequence (Q96SW2 whole entry): as the sequence (Q96SW2 whole entry) above
T5 sequence (Q16531 whole entry partner): as the sequence (Q16531 whole entry partner) above
Procedure, shortened: as §1

WEE1 = target: T6, WEE1 (Homo sapiens, UniProt P30291+Q96SW2); test: Western blot degradation of WEE1 in hPBMCs (24 h)
T6 construct: The supernatant was aspirated as the extracted total cell protein; endogenous in cells; host or cells: human peripheral blood mononuclear cells (hPBMCs)
Procedure, shortened: as §1

Structure (SMILES)	IKZF3 substrate protein remaining % (IKZF3)	GSPT1 substrate protein remaining % (GSPT1)	IKZF2 substrate protein remaining % (IKZF2)	IKZF1 substrate protein remaining % (IKZF1)	CK1α substrate protein remaining % (CK1α)	WEE1 substrate protein remaining % (WEE1)
O=C1CCN(N2C(=O)c3ccc(CN4CCN(c5ccnc(Br)c5F)CC4)cc3C2=O)C(=O)N1 [GT-07167, 5-((4-(2-bromo-3-fluoropyridin-4-yl)piperazin-1-yl)methyl)-2-(2,4-dioxotetrahydropyrimidin-1(2H)-yl)isoindoline-1,3-dione]	B (80%< substrate protein remaining % ≤100%)	A (0% ≤ substrate protein remaining % ≤80%)	A (0% ≤ substrate protein remaining % ≤80%)	B (80%< substrate protein remaining % ≤100%)	B (80%< substrate protein remaining % ≤100%)	B (80%< substrate protein remaining % ≤100%)
O=C1CCN(N2C(=O)c3ccc(CN4CCN(c5ccnc(Cl)c5Br)CC4)cc3C2=O)C(=O)N1 [GT-07168, 5-((4-(3-bromo-2-chloropyridin-4-yl)piperazin-1-yl)methyl)-2-(2,4-dioxotetrahydropyrimidin-1(2H)-yl)isoindoline-1,3-dione]	B (80%< substrate protein remaining % ≤100%)	A (0% ≤ substrate protein remaining % ≤80%)	A (0% ≤ substrate protein remaining % ≤80%)	B (80%< substrate protein remaining % ≤100%)	B (80%< substrate protein remaining % ≤100%)	B (80%< substrate protein remaining % ≤100%)
O=C1CCN(N2Cc3cc(CN4CCN(c5ccnc(Cl)c5Cl)CC4)ccc3C2=O)C(=O)N1 [GT-07169, 1-(5-((4-(2,3-dichloropyridin-4-yl)piperazin-1-yl)methyl)-1-oxoisoindolin-2-yl)dihydropyrimidine-2,4(1H,3H)-dione]	B (80%< substrate protein remaining % ≤100%)	B (80%< substrate protein remaining % ≤100%)	B (80%< substrate protein remaining % ≤100%)	B (80%< substrate protein remaining % ≤100%)	B (80%< substrate protein remaining % ≤100%)	A (0% ≤ substrate protein remaining % ≤80%)
O=C1CCN(N2Cc3cc(CN4CCN(c5c(Cl)cncc5Br)CC4)ccc3C2=O)C(=O)N1 [GT-07170, 1-(5-((4-(3-bromo-5-chloropyridin-4-yl)piperazin-1-yl)methyl)-1-oxoisoindolin-2-yl)dihydropyrimidine-2,4(1H,3H)-dione]	B (80%< substrate protein remaining % ≤100%)	B (80%< substrate protein remaining % ≤100%)	B (80%< substrate protein remaining % ≤100%)	A (0% ≤ substrate protein remaining % ≤80%)	B (80%< substrate protein remaining % ≤100%)	A (0% ≤ substrate protein remaining % ≤80%)
O=C1CCN(N2Cc3cc(CN4CCN(c5c(F)cncc5Cl)CC4)ccc3C2=O)C(=O)N1 [GT-07171, 1-(5-((4-(3-chloro-5-fluoropyridin-4-yl)piperazin-1-yl)methyl)-1-oxoisoindolin-2-yl)dihydropyrimidine-2,4(1H,3H)-dione]	B (80%< substrate protein remaining % ≤100%)	B (80%< substrate protein remaining % ≤100%)	B (80%< substrate protein remaining % ≤100%)	B (80%< substrate protein remaining % ≤100%)	B (80%< substrate protein remaining % ≤100%)	A (0% ≤ substrate protein remaining % ≤80%)
O=C1CCN(N2C(=O)c3ccc(CN4CCN(c5ncccn5)CC4)cc3C2=O)C(=O)N1 [GT-07285, 2-(2,4-dioxotetrahydropyrimidin-1(2H)-yl)-5-((4-(pyrimidin-2-yl)piperazin-1-yl)methyl)isoindoline-1,3-dione]	B (80%< substrate protein remaining % ≤100%)	B (80%< substrate protein remaining % ≤100%)	B (80%< substrate protein remaining % ≤100%)	A (0% ≤ substrate protein remaining % ≤80%)	B (80%< substrate protein remaining % ≤100%)	A (0% ≤ substrate protein remaining % ≤80%)
O=C1CCN(N2C(=O)c3ccc(CN4CCN(c5nccc(Cl)c5Br)CC4)cc3C2=O)C(=O)N1 [GT-07291, 5-((4-(3-bromo-4-chloropyridin-2-yl)piperazin-1-yl)methyl)-2-(2,4-dioxotetrahydropyrimidin-1(2H)-yl)isoindoline-1,3-dione]	B (80%< substrate protein remaining % ≤100%)	A (0% ≤ substrate protein remaining % ≤80%)	B (80%< substrate protein remaining % ≤100%)	B (80%< substrate protein remaining % ≤100%)	B (80%< substrate protein remaining % ≤100%)	A (0% ≤ substrate protein remaining % ≤80%)
O=C1CCN(N2C(=O)c3ccc(CN4CCCN(C(c5ccccc5)c5ccccc5)CC4)cc3C2=O)C(=O)N1 [GT-07295, 5-((4-benzhydryl-1,4-diazepan-1-yl)methyl)-2-(2,4-dioxotetrahydropyrimidin-1(2H)-yl)isoindoline-1,3-dione]	B (80%< substrate protein remaining % ≤100%)	A (0% ≤ substrate protein remaining % ≤80%)	B (80%< substrate protein remaining % ≤100%)	B (80%< substrate protein remaining % ≤100%)	B (80%< substrate protein remaining % ≤100%)	B (80%< substrate protein remaining % ≤100%)
CC1(C)CCC(CN2CCN(Cc3ccc4c(c3)CN(N3CCC(=O)NC3=O)C4=O)C(C(F)(F)F)C2)=C(c2ccc(Cl)cc2)C1 (stereo not drawn) [GT-07296, 1-(5-((4-((4′-chloro-5,5-dimethyl-3,4,5,6-tetrahydro-[1,1′-biphenyl]-2-yl)methyl)-2-(trifluoromethyl)piperazin-1-yl)methyl)-1-oxoisoindolin-2-yl)dihydropyrimidine-2,4(1H,3H)-dione]	B (80%< substrate protein remaining % ≤100%)	A (0% ≤ substrate protein remaining % ≤80%)	B (80%< substrate protein remaining % ≤100%)	A (0% ≤ substrate protein remaining % ≤80%)	A (0% ≤ substrate protein remaining % ≤80%)	A (0% ≤ substrate protein remaining % ≤80%)
O=C1CCN(N2Cc3cc(CN4CCN(CC5=C(c6ccc(F)cc6)CCCC5)CC4)ccc3C2=O)C(=O)N1 [GT-07297, 1-(5-((4-((4′-fluoro-3,4,5,6-tetrahydro-[1,1′-biphenyl]-2-yl)methyl)piperazin-1-yl)methyl)-1-oxoisoindolin-2-yl)dihydropyrimidine-2,4(1H,3H)-dione]	A (0% ≤ substrate protein remaining % ≤80%)	A (0% ≤ substrate protein remaining % ≤80%)	A (0% ≤ substrate protein remaining % ≤80%)	B (80%< substrate protein remaining % ≤100%)	A (0% ≤ substrate protein remaining % ≤80%)	A (0% ≤ substrate protein remaining % ≤80%)
